The text below walks through data of the supplement of paper PMC4862054.

“And” between values parts separate entries of the source, which are not always exact repeats. Identical values can stand only once.

In test [1] the test system is MDA-MB-453. The test is described as follows: normalised viability (% of control), CellTiter-Blue; higher = more viable cells (100 = DMSO, 0 = benzethonium chloride kill control). As to conditions: incubation time: 72 h. The protocol: (§1)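 DSRT, CellTiter-Blue viability, 72 h incubation. Signal is normalised to DMSO and benzethonium chloride controls. Value is the normalised response at dose 1.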
On the technique in general: Resazurin is reduced to fluorescent resorufin, in cell work by metabolically active cells.

The subject of the next test is CAL-148. Described as above. The note with it: incubation time: 72 h. The protocol: as §1
In a further test the test system is MDA-MB-468. The test is described as above. As to conditions: incubation time: 72 h. The procedure:
as §1

Test [2] relates to HDQ-P1. The test is described as above. The note with it: incubation time: 72 h. The procedure: as §1
Another test relates to DU-4475. The description is as above. The note with it: incubation time: 72 h. The procedure:
as §1

The test system of a further test is SK-BR-3. The test is described as above. As to conditions: incubation time: 72 h. The procedure: as §1
The test system of test [3] is CAL-51. The description is as above. The note with it: incubation time: 72 h. The procedure:
as §1

The test system of the next test is HCC1937. The description is as above. The note with it: incubation time: 72 h. The procedure: as §1
Test [4] has as its system MFM-223. Described as above. The note with it: incubation time: 72 h. The protocol: as §1
Test [5] deals with MDA-MB-436. The description is as above. The note with it: incubation time: 72 h. The protocol:
as §1

In test [6] the test system is CAL-120. The test is described as above. As to conditions: incubation time: 72 h. The protocol:
as §1

A further test concerns Hs578T. The test is described as above. As to conditions: incubation time: 72 h. The procedure: as §1
Test [7] concerns HCC1143. The test is described as above. As to conditions: incubation time: 72 h. The protocol: as §1
Test [8] concerns BT-549. The test is described as above. The note with it: incubation time: 72 h. The protocol: as §1
For another test, the system named is BT-474. The description is as above. As to conditions: incubation time: 72 h. The procedure: as §1
The next test relates to HCC1599. Described as above. As to conditions: incubation time: 72 h. The procedure:
as §1

The test system of test [9] is CAL-85-1. Described as above. The note with it: incubation time: 72 h. The procedure: as §1
Another test has as its system MDA-MB-231. The test is described as above. As to conditions: incubation time: 72 h. The protocol:
as §1

The test system of test [10] is MDA-MB-453. As to conditions: 72 h. An outline of the steps: (§2)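 Plates of 384 wells holding compound in 5 µl medium received breast cancer cell lines in 20 µl suspension and were incubated 72 h. CellTiter-Blue (2.5 µl, 2 h, 37 °C) was used for viability, read at 560/590 nm, and every plate was normalised to vehicle and a positive kill control and assessed by Z'-factor. The EC50 derives from a percent-inhibition dose-response curve fit censored at the highest concentration, leaving out rows whose drug sensitivity score was zero.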

In test [11] the test system is HCC1143. The test is described as follows: normalised viability (% of control), CellTiter-Blue; higher = more viable cells (about 100 = DMSO control). The note with it: incubation time: 72 h. The essentials:
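Normalised viability is given for a single listed concentration of the series. In 384-well plates, breast cancer cell lines were incubated 72 h with compound, then read with CellTiter-Blue (2 h, 37 °C) at 560/590 nm. Per-plate scaling set vehicle to 100 and a positive kill control to 0, with Z'-factor quality control.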

Test [12] relates to CAL-85-1. As to conditions: 72 h. The procedure:
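Drug sensitivity and resistance testing (DSRT) of breast cancer cell lines in 384-well plates, 5 concentrations in 10-fold dilutions over a compound-specific 10,000-fold range. After 72 h, cytotoxicity was read by CellTox Green fluorescence and viability by CellTiter-Glo luminescence (multiplexed), normalised to DMSO and benzethonium chloride controls. EC50 is the inflection point of the fitted dose-response curve (bottom asymptote free, so it can be relative for partial curves) and is censored at the highest tested concentration. Rows with DSS 0 (no meaningful response) were excluded.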

Test [13] has as its system HDQ-P1. As to conditions: 72 h. The essentials:
as §2

The subject of test [14] is CAL-51. As to conditions: 72 h. An outline of the steps: as §2
Test [15] concerns CAL-85-1. The note with it: 72 h. An outline of the steps: as §2
This is another data set of the same source.

The test system of test [16] is MFM-223. The note with it: 72 h. The essentials: as §2
For test [17], the system named is MDA-MB-436. As to conditions: 72 h. The essentials:
as §2

The subject of test [18] is CAL-120. The note with it: 72 h. The essentials:
as §2

Test [19] relates to HCC1143. As to conditions: 72 h. The essentials:
as §2

The test system of test [20] is BT-549. The note with it: 72 h. The essentials:
as §2

`C[C@]12C=CC(=O)C=C1CC[C@@H]1[C@@H]2[C@@H](O)C[C@@]2(C)[C@H]1CC[C@]2(O)C(=O)CO` [Prednisolone]: the normalised viability in the test with MDA-MB-453 [1] (1 nM) amounted to 100%; in the test with CAL-148 (1 nM), 111%; in the test on MDA-MB-468 (1 nM) it was 109%; in the test on HDQ-P1 [2] (1 nM), 85.7%; in the test with DU-4475 (1 nM), 95.6%; in the test on SK-BR-3 (1 nM), 130%. Further, the normalised viability with CAL-51 [3] (1 nM) stood at 104%; in the test on HCC1937 (1 nM) it was 88.8%; in the test on MFM-223 [4] (1 nM), 102%; in the test on MDA-MB-436 [5] (1 nM), 108%; in the test on CAL-120 [6] (1 nM) it was 83.5%; in the test on Hs578T (1 nM) it was 122%. For the same molecule, the normalised viability in the test on HCC1143 [7] (1 nM) came out at 95.1%; with BT-549 [8] (1 nM) it was 101%; in the test on BT-474 (1 nM) it was 117%; with HCC1599 (1 nM) it was 118%; in the test with CAL-85-1 [9] (1 nM), 97.7%; in the test on MDA-MB-231 (1 nM), 105%. Further, in the test with HCC1143 [11] (100 nM), the normalised viability amounted to 97.8%. Moreover, the “EC50, CellTiter-Blue viability” value in the test with MDA-MB-453 [10] worked out at 171 nM.

Turning to `Nc1nc(=O)c2c([nH]1)NCC(CNc1ccc(C(=O)N[C@@H](CCC(=O)O)C(=O)O)cc1)N2C=O` (mixture of isomers) [Folinic acid], the normalised viability turned out to be 104% in the test on MDA-MB-453 [1] (0.099 nM); 102% in the test with CAL-148 (0.099 nM); 117% in the test with MDA-MB-468 (0.099 nM); 131% in the test with HDQ-P1 [2] (0.099 nM); 113% with DU-4475 (0.099 nM); 112% in the test with SK-BR-3 (0.099 nM). The normalised viability with CAL-51 [3] (0.099 nM) was 92.7%; with HCC1937 (0.099 nM), 95.9%; in the test on MFM-223 [4] (0.099 nM) it was 105%; in the test on MDA-MB-436 [5] (0.099 nM) it was 113%; with CAL-120 [6] (0.099 nM), 95.4%; in the test with Hs578T (0.099 nM), 105%. Moreover, the normalised viability in the test on HCC1143 [7] (0.099 nM) was found to be 107%; with BT-549 [8] (0.099 nM), 94.1%; in the test with BT-474 (0.099 nM) it was 91.7%; with HCC1599 (0.099 nM), 117%; with CAL-85-1 [9] (0.099 nM), 98.4%; with MDA-MB-231 (0.099 nM), 101%. Further, the normalised viability in the test on HCC1143 [11] (9.9 nM) was 86.1%.

Regarding `CS(=O)(=O)N1CCN(Cc2cc3nc(-c4cccc5[nH]ncc45)nc(N4CCOCC4)c3s2)CC1` [Pictilisib], the “EC50, CellTox Green” value with CAL-85-1 [12] turned out to be 2150 nM.

Take `Cc1nc(Nc2ncc(C(=O)Nc3c(C)cccc3Cl)s2)cc(N2CCN(CCO)CC2)n1` [Dasatinib]: the normalised viability in the test with MDA-MB-453 [1] (0.1 nM) was 103% and 97.2%; with CAL-148 (0.1 nM), 104% and 96.1%; in the test with MDA-MB-468 (0.1 nM), 109% and 100%; in the test with HDQ-P1 [2] (0.1 nM), 126% and 109%; with DU-4475 (0.1 nM), 109% and 110%; in the test with SK-BR-3 (0.1 nM) it was 98.2% and 92.7%. Moreover, the normalised viability is 105% and 114% in the test on CAL-51 [3] (0.1 nM); 99.2% and 94.2% in the test with MFM-223 [4] (0.1 nM); 94.8% and 91.2% with MDA-MB-436 [5] (0.1 nM); 104% and 85.6% in the test with CAL-120 [6] (0.1 nM); 107% and 97.2% in the test with Hs578T (0.1 nM); 102% and 84.5% in the test on HCC1143 [7] (0.1 nM). Also, the normalised viability with BT-549 [8] (0.1 nM) is 101% and 89.2%; in the test with BT-474 (0.1 nM), 97.5% and 85.4%; with HCC1599 (0.1 nM), 106% and 88.6%; in the test on CAL-85-1 [9] (0.1 nM), 97.2% and 88.5%; with MDA-MB-231 (0.1 nM) it was 110% and 86.5%. For the same molecule, the “EC50, CellTiter-Blue viability” value in the test on HDQ-P1 [13] came out at 12.4 nM; in the test on CAL-51 [14], 22.2 nM; in the test on CAL-85-1 [15], 83.9 nM; in the test with MFM-223 [16], 427 nM; in the test on MDA-MB-436 [17] it was 78.5 nM; with CAL-120 [18] it was 56.3 nM. The “EC50, CellTiter-Blue viability” value in the test with HCC1143 [19] was determined as 34.5 nM; in the test on BT-549 [20], 58.5 nM. Also, in the test with CAL-85-1 [12], the “EC50, CellTox Green” value turned out to be 108 nM.
